Laboratory results as given in US10047083B2, “Dihydropyrimidinoisoquinolinones and pharmaceutical compositions thereof for the treatment of inflammatory disorders” (GALAPAGOS NV, priority 2011, dated 2018).

Target: T1, GPR84 (Homo sapiens, UniProt Q9NQS5)
T1 construct: expressed in transfected cells; membranes used
Assay: GTPγS binding assay (GPR84)
Format: biochemical
Conditions: membranes from stable cell line over expressing GPR84; 3,3′ di indolylmethane at EC80
Procedure: 1.1. Cell Based Assay: GTp-γS Binding Assay.
The following assay can be used for determination of GPR84 activation.
The assay is performed in a 96 well plate where the following reagents are added. […] In a last step, 30 μL of a mixture consisting of membranes-GTPγS-SpA beads is added [mixture consists of 20 μg/well membranes derived from stable cell line over expressing GPR84 (membranes are pre-incubated with 0.1 μM GDP for 15 min at 4° C.), 0.1 nM [^35S]GTPγS (Perkin Elmer, NEG030) and 0.5 mg/well PVT-WGA SpA beads (Perkin Elmer, RPNQ0001)]. All components are diluted in assay buffer containing 20 mM HEPES pH 7.4; 5 mM MgCl2; 250 mM NaCl; 0.05% BSA; 75 ug/mL saponin. Reactions are incubated for 90 min at room temperature followed by centrifugation at 2000 rpm during 15 min. Plates are read on a Topcount reader (Perkin Elmer) immediately after centrifugation (readout time, 1 min/well).

T1 sequence (Q9NQS5 whole entry): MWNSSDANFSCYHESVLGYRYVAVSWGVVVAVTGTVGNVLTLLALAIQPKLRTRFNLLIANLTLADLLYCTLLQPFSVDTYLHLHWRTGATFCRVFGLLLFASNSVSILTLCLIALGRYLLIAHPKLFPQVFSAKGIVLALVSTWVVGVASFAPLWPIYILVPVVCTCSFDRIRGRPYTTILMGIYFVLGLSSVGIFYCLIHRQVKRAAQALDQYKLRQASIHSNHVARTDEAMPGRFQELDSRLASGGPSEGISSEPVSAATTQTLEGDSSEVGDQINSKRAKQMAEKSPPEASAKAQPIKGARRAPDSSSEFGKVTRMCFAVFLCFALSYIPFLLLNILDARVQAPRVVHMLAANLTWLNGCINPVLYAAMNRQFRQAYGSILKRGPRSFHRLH

IC50 [nM]	Structure (SMILES)
101 to 500	Cc1ccc(-c2ccc3c(c2)CCn2c-3cc(OCC3COCCO3)nc2=O)o1 (centres unmarked) [Compound 97, 2-([1,4]dioxan-2-ylmethoxy)-9-(5-methyl-furan-2-yl)-6,7-dihydro-pyrimido[6,1-a]isoquinolin-4-one]
101 to 500	CCCn1cc(-c2ccc3c(c2)CCn2c-3cc(OCC3COCCO3)nc2=O)cn1 (centres unmarked) [Compound 101, 2-([1,4]dioxan-2-ylmethoxy)-9-(1-propyl-1H-pyrazol-4-yl)-6,7-dihydro-pyrimido[6,1-a]isoquinolin-4-one]
0.01 to 100	O=c1nc(OC[C@H]2COCCO2)cc2n1CCc1cc(OCc3noc(C4CC4)n3)ccc1-2 [Compound 104, 9-(5-cyclopropyl-[1,2,4]oxadiazol-3-ylmethoxy)-2-((R)-1-[1,4]dioxan-2-ylmethoxy)-6,7-dihydro-pyrimido[6,1-a]isoquinolin-4-one]
101 to 500	C#Cc1ccc2c(c1)CCn1c-2cc(OCC2COCCO2)nc1=O (centres unmarked) [Compound 105, 2-([1,4]dioxan-2-ylmethoxy)-9-ethynyl-6,7-dihydro-pyrimido[6,1-a]isoquinolin-4-one]
501 to 1000	O=c1nc(OCC2COCCO2)cc2n1CCc1cc(C#Cc3ncccn3)ccc1-2 (centres unmarked) [Compound 106, 2-([1,4]dioxan-2-ylmethoxy)-9-pyrimidin-2-ylethynyl-6,7-dihydro-pyrimido[6,1-a]isoquinolin-4-one]
0.01 to 100	O=c1nc(OCC2COCCO2)cc2n1CCc1cc(C#CC(O)c3cccnc3)ccc1-2 (centres unmarked) [Compound 108, 2-([1,4]dioxan-2-ylmethoxy)-9-(3-hydroxy-3-pyridin-3-yl-prop-1-ynyl)-6,7-dihydro-pyrimido[6,1-a]isoquinolin-4-one]
101 to 500	COC(C#Cc1ccc2c(c1)CCn1c-2cc(OCC2COCCO2)nc1=O)C(C)C (centres unmarked) [Compound 110, 2-([1,4]dioxan-2-ylmethoxy)-9-(3-methoxy-4-methyl-pent-1-ynyl)-6,7-dihydro-pyrimido[6,1-a]isoquinolin-4-one]
101 to 500	O=c1nc(OCC2COCCO2)cc2n1CCc1cc(C#CCn3ccnc3)ccc1-2 (centres unmarked) [Compound 113, 2-([1,4]Dioxan-2-ylmethoxy)-9-(3-imidazol-1-yl-prop-1-ynyl)-6,7-dihydro-pyrimido[6,1-a]isoquinolin-4-one]

The next lines start with the molecule.

Structure (SMILES)	IC50 [nM]
COc1nccc(-c2ccc3c(c2)CCn2c-3cc(OCC3COCCO3)nc2=O)c1Cl (centres unmarked) [Compound 64, 9-(3-chloro-2-methoxy-pyridin-4-yl)-2-([1,4]dioxan-2-ylmethoxy)-6,7-dihydro-pyrimido[6,1-a]isoquinolin-4-one]	101 to 500
Cc1cc(-c2ccc3c(c2)CCn2c-3cc(OCC3COCCO3)nc2=O)ccn1 (centres unmarked) [Compound 65, 2-([1,4]dioxan-2-ylmethoxy)-9-(2-methyl-pyridin-4-yl)-6,7-dihydro-pyrimido[6,1-a]isoquinolin-4-one]	501 to 1000
N#Cc1ccncc1-c1ccc2c(c1)CCn1c-2cc(OCC2COCCO2)nc1=O (centres unmarked) [Compound 66, 3-[2-([1,4]dioxan-2-ylmethoxy)-4-oxo-6,7-dihydro-4H-pyrimido[6,1-a]isoquinolin-9-yl]-isonicotinonitrile]	101 to 500
COc1ccc(OC)c(-c2ccc3c(c2)CCn2c-3cc(OCC3COCCO3)nc2=O)c1 (centres unmarked) [Compound 67, 9-(2,5-dimethoxy-phenyl)-2-([1,4]dioxan-2-ylmethoxy)-6,7-dihydro-pyrimido[6,1-a]isoquinolin-4-one]	0.01 to 100
COc1ccc(-c2ccc3c(c2)CCn2c-3cc(OCC3COCCO3)nc2=O)c(OC)n1 (centres unmarked) [Compound 70, 9-(2,6-dimethoxy-pyridin-3-yl)-2-([1,4]dioxan-2-ylmethoxy)-6,7-dihydro-pyrimido[6,1-a]isoquinolin-4-one]	0.01 to 100
O=c1nc(OCC2COCCO2)cc2n1CCc1cc(-c3ccc(N4CCCC4)nc3)ccc1-2 (centres unmarked) [Compound 74, 2-([1,4]dioxan-2-ylmethoxy)-9-(6-pyrrolidin-1-yl-pyridin-3-yl)-6,7-dihydro-pyrimido[6,1-a]isoquinolin-4-one]	0.01 to 100
O=c1nc(OCC2COCCO2)cc2n1CCc1cc(OCc3ncc(-c4ccccc4)o3)ccc1-2 (centres unmarked) [Compound 75, 2-([1,4]dioxan-2-ylmethoxy)-9-(5-phenyl-oxazol-2-ylmethoxy)-6,7-dihydro-pyrimido[6,1-a]isoquinolin-4-one]	0.01 to 100
CC(C)(C)c1cnc(COc2ccc3c(c2)CCn2c-3cc(OCC3COCCO3)nc2=O)o1 (centres unmarked) [Compound 76, 9-(5-tert-butyl-oxazol-2-ylmethoxy)-2-([1,4]dioxan-2-ylmethoxy)-6,7-dihydro-pyrimido[6,1-a]isoquinolin-4-one]	0.01 to 100
CCc1nc(COc2ccc3c(c2)CCn2c-3cc(OCC3COCCO3)nc2=O)no1 (centres unmarked) [Compound 78, 2-([1,4]dioxan-2-ylmethoxy)-9-(5-ethyl-[1,2,4]oxadiazol-3-ylmethoxy)-6,7-dihydro-pyrimido[6,1-a]isoquinolin-4-one]	0.01 to 100
Cc1nc(COc2ccc3c(c2)CCn2c-3cc(OCC3COCCO3)nc2=O)no1 (centres unmarked) [Compound 79, 2-([1,4]dioxan-2-ylmethoxy)-9-(5-methyl-[1,2,4]oxadiazol-3-ylmethoxy)-6,7-dihydro-pyrimido[6,1-a]isoquinolin-4-one]	101 to 500
O=c1nc(OCC2COCCO2)cc2n1CCc1cc(C#CC3CCCC3)ccc1-2 (centres unmarked) [Compound 81, 9-cyclopentylethynyl-2-([1,4]dioxan-2-ylmethoxy)-6,7-dihydro-pyrimido[6,1-a]isoquinolin-4-one]	0.01 to 100
O=c1nc(OCC2COCCO2)cc2n1CCc1cc(C#CC3CCCCC3)ccc1-2 (centres unmarked) [Compound 82, 9-cyclohexylethynyl-2-([1,4]dioxan-2-ylmethoxy)-6,7-dihydro-pyrimido[6,1-a]isoquinolin-4-one]	0.01 to 100
CCCCC#Cc1ccc2c(c1)CCn1c-2cc(OCC2COCCO2)nc1=O (centres unmarked) [Compound 84, 2-([1,4]dioxan-2-ylmethoxy)-9-hex-1-ynyl-6,7-dihydro-pyrimido[6,1-a]isoquinolin-4-one]	0.01 to 100
CC(O)C#Cc1ccc2c(c1)CCn1c-2cc(OCC2COCCO2)nc1=O (centres unmarked) [Compound 87, 2-([1,4]dioxan-2-ylmethoxy)-9-(3-hydroxy-but-1-ynyl)-6,7-dihydro-pyrimido[6,1-a]isoquinolin-4-one]	101 to 500
CCC(O)(C#Cc1ccc2c(c1)CCn1c-2cc(OCC2COCCO2)nc1=O)CC (centres unmarked) [Compound 91, 2-([1,4]dioxan-2-ylmethoxy)-9-(3-ethyl-3-hydroxy-pent-1-ynyl)-6,7-dihydro-pyrimido[6,1-a]isoquinolin-4-one]	101 to 500
O=c1nc(OCC2COCCO2)cc2n1CCc1cc(C#CCNCc3ccccc3)ccc1-2 (centres unmarked) [Compound 93, 9-(3-benzylamino-prop-1-ynyl)-2-([1,4]dioxan-2-ylmethoxy)-6,7-dihydro-pyrimido[6,1-a]isoquinolin-4-one]	0.01 to 100
CCn1cc(-c2ccc3c(c2)CCn2c-3cc(OCC3COCCO3)nc2=O)cn1 (centres unmarked) [Compound 95, 2-([1,4]dioxan-2-ylmethoxy)-9-(1-ethyl-1H-pyrazol-4-yl)-6,7-dihydro-pyrimido[6,1-a]isoquinolin-4-one]	501 to 1000
CC(C)CCn1cc(-c2ccc3c(c2)CCn2c-3cc(OCC3COCCO3)nc2=O)cn1 (centres unmarked) [Compound 96, 2-([1,4]dioxan-2-ylmethoxy)-9-[1-(3-methyl-butyl)-1H-pyrazol-4-yl]-6,7-dihydro-pyrimido[6,1-a]isoquinolin-4-one]	101 to 500
